Assays:
[1] = AUC in Sprague-Dawley rat at 10 mg/kg, po by reverse phase chromatography; type: ADME, organism-based; details: in vivo
[2] = Toxicity in Cynomolgus monkey assessed as emesis at 250 to 500 mg/kg, po administered as single dose; type: organism-based, Macaca fascicularis; details: in vivo, dose 250-500 mg/kg
[3] = Toxicity in Sprague-Dawley rat assessed as eyes and nares staining at 250 mg/kg, po administered as single dose and measured after 14 days; type: organism-based; details: in vivo, 336 h, time 14 day
[4] = AUC in Cynomolgus monkey at 1 mg/kg, iv by reverse phase chromatography; type: ADME, organism-based, Macaca fascicularis; details: in vivo
[5] = Cmax in female mouse at 5 mg/kg, po by reverse phase chromatography; type: ADME, organism-based; details: in vivo
[6] = AUC (0 to infinity) in female mouse at 1 mg/kg, iv by reverse phase chromatography; type: ADME, organism-based; details: in vivo
[7] = AUC in Sprague-Dawley rat at 5 mg/kg, po by reverse phase chromatography; type: ADME, organism-based; details: in vivo
[8] = Toxicity in Sprague-Dawley rat assessed as lethargy at 90 mg/kg, po administered as single dose and measured after 14 days; type: organism-based; details: in vivo, 336 h, time 14 day
[9] = Genotoxicity in human Lymphocyte assessed as induction of chromosomal aberration upto 3000 ug/ml; type: toxicity, cell-based; details: dose < 3000 µg/ml
[10] = AUC (0 to infinity) in Cynomolgus monkey at 1 mg/kg, iv by reverse phase chromatography; type: ADME, organism-based, Macaca fascicularis; details: in vivo
[11] = AUC (0 to infinity) in Cynomolgus monkey at 10 mg/kg, po administered for 7 days by reverse phase chromatography; type: ADME, organism-based, Macaca fascicularis; details: in vivo, time 7 day
[12] = Drug absorption in human Caco-2 cells; type: ADME, cell-based
[13] = AUC in Sprague-Dawley rat at 1 mg/kg, iv by reverse phase chromatography; type: ADME, organism-based; details: in vivo
[14] = Toxicity in Cynomolgus monkey assessed as emesis at 100 mg/kg, po administered twice a day; type: organism-based, Macaca fascicularis; details: in vivo
[15] = Toxicity in Sprague-Dawley rat assessed as piloerection at 90 mg/kg, po administered as single dose and measured after 14 days; type: organism-based; details: in vivo, 336 h, time 14 day
[16] = Tmax in female mouse at 1 mg/kg, iv by reverse phase chromatography; type: ADME, organism-based; details: in vivo
[17] = Cmax in Cynomolgus monkey at 10 mg/kg, po administered for 7 days by reverse phase chromatography; type: ADME, organism-based, Macaca fascicularis; details: in vivo, time 7 day
[18] = Toxicity in Sprague-Dawley rat assessed as diarrhea at 100 mg/kg, po administered as single dose and measured after 14 days; type: organism-based; details: in vivo, 336 h, time 14 day
[19] = Toxicity in Sprague-Dawley rat assessed as lethargy at 150 mg/kg, po administered as single dose and measured after 14 days; type: organism-based; details: in vivo, 336 h, time 14 day
[20] = Genotoxicity in CD-1(ICR)BR mouse assessed as increase in polychromatic erythrocytes at 500 to 2000 mg/kg, po measured after 48 hrs by micronucleus assay; type: toxicity, organism-based; details: in vivo, dose 500-2000 mg/kg
[21] = Genotoxicity in mouse L5178Y cells assessed as increase in forward mutation at thymidine kinase locus; type: toxicity, cell-based
[22] = Toxicity in Sprague-Dawley rat assessed as piloerection at 150 mg/kg, po administered as single dose and measured after 14 days; type: organism-based; details: in vivo, 336 h, time 14 day
[23] = Volume of distribution in female mouse at 1 mg/kg, iv by reverse phase chromatography; type: ADME, organism-based; details: in vivo
[24] = Oral bioavailability in Sprague-Dawley rat at 5 mg/kg by reverse phase chromatography; type: ADME, organism-based; details: in vivo
[25] = Toxicity in Sprague-Dawley rat assessed as anogenital staining at 250 mg/kg, po administered as single dose and measured after 14 days; type: organism-based; details: in vivo, 336 h, time 14 day
[26] = Metabolic stability in rat liver microsome assessed as half life in presence of NADPH; type: ADME; details: liver microsomes
[27] = Toxicity in Sprague-Dawley rat assessed as macroscopic examination at necroscopy at 250 mg/kg, po administered as single dose and measured after 14 days; type: organism-based; details: in vivo, 336 h, time 14 day
[28] = Toxicity in Sprague-Dawley rat assessed as anogenital staining at 100 mg/kg, po administered as single dose and measured after 14 days; type: organism-based; details: in vivo, 336 h, time 14 day
[29] = Cmax in Sprague-Dawley rat at 10 mg/kg, po by reverse phase chromatography; type: ADME, organism-based; details: in vivo
[30] = Metabolic stability in dog liver microsome assessed as half life in presence of NADPH; type: ADME, Canis lupus familiaris; details: liver microsomes
[31] = Toxicity in Sprague-Dawley rat assessed as macroscopic examination at necroscopy at 100 mg/kg, po administered as single dose and measured after 14 days; type: organism-based; details: in vivo, 336 h, time 14 day
[32] = Tmax in Sprague-Dawley rat at 1 mg/kg, iv by reverse phase chromatography; type: ADME, organism-based; details: in vivo
[33] = Oral bioavailability in Sprague-Dawley rat at 10 mg/kg by reverse phase chromatography; type: ADME, organism-based; details: in vivo
[34] = Metabolic stability in cryopreserved rat hepatocyte assessed as half life in presence of NADPH; type: ADME, cell-based; details: cryopreserved hepatocytes
[35] = Toxicity in rat assessed as effect on clinical observations at 1 to 9 mg/kg, po; type: organism-based; details: in vivo, dose 1-9 mg/kg
[36] = tested on: Hepatitis C virus; assay: Antiviral activity against Hepatitis C virus infected in Ava5 cells assessed as inhibition of viral RNA replication incubated for 72 hrs by RT-PCR analysis; type: functional, organism-based, Hepacivirus hominis; details: Ava5, 72 h
[37] = Cmax in Sprague-Dawley rat at 5 mg/kg, po by reverse phase chromatography; type: ADME, organism-based; details: in vivo
[38] = Half life in Sprague-Dawley rat at 5 mg/kg, po by reverse phase chromatography; type: ADME, organism-based; details: in vivo
[39] = AUC (0 to infinity) in female mouse at 5 mg/kg, po by reverse phase chromatography; type: ADME, organism-based; details: in vivo
[40] = Oral bioavailability in mouse at 5 mg/kg by reverse phase chromatography; type: ADME, organism-based; details: in vivo
[41] = Half life in Sprague-Dawley rat at 10 mg/kg, po by reverse phase chromatography; type: ADME, organism-based; details: in vivo
[42] = Genotoxicity in CD-1(ICR)BR mouse assessed as effect on bone marrow cells at 2000 mg/kg, po by micronucleus assay; type: toxicity, organism-based; details: in vivo
[43] = Half life in female mouse at 5 mg/kg, po by reverse phase chromatography; type: ADME, organism-based; details: in vivo
[44] = Half life in Sprague-Dawley rat at 1 mg/kg, iv by reverse phase chromatography; type: ADME, organism-based; details: in vivo
[45] = Tmax in Cynomolgus monkey at 1 mg/kg, iv by reverse phase chromatography; type: ADME, organism-based, Macaca fascicularis; details: in vivo
[46] = Toxicity in rat assessed as effect on respiratory measures at 1 to 9 mg/kg, po; type: organism-based; details: in vivo, dose 1-9 mg/kg
[47] = Metabolic stability in cryopreserved human hepatocyte assessed as half life in presence of NADPH; type: ADME, cell-based; details: cryopreserved hepatocytes
[48] = Tmax in female mouse at 5 mg/kg, po by reverse phase chromatography; type: ADME, organism-based; details: in vivo
[49] = Toxicity in dog assessed as effect on […] function at 1 to 5 mg/kg, po administered for 3 hr post dose by electrocardiogram analysis; type: organism-based, Canis lupus familiaris; details: in vivo, dose 1-5 mg/kg
[50] = Half life in female mouse at 1 mg/kg, iv by reverse phase chromatography; type: ADME, organism-based; details: in vivo
[51] = Toxicity in Sprague-Dawley rat assessed as lethargy at 100 mg/kg, po administered as single dose and measured after 14 days; type: organism-based; details: in vivo, 336 h, time 14 day

C[C@@]1(O)[C@H](O)[C@@H](CO)O[C@H]1c1coc2c(N)ncnc12
AUC [1]: 4980 ng·h/mL
Activity [2]: Toxic
Activity [3]: Non-toxic
AUC [4]: 1930 ng·h/mL
Cmax [5]: 1060 ng/mL
AUC(0-inf) [6]: 1440 ng·h/mL
AUC [7]: 1920 ng·h/mL
Activity [8]: Non-toxic
Activity [9]: Non-toxic
AUC(0-inf) [10]: 2340 ng·h/mL
AUC(0-inf) [11]: 8010 ng·h/mL
Drug absorption [12]: Not_active
AUC [13]: 699 ng·h/mL
Activity [14]: Non-toxic
Activity [15]: Non-toxic
Tmax [16]: 4.98 min
Cmax [17]: 2510 ng/mL
Activity [18]: Non-toxic
Activity [19]: Toxic
Activity [20]: Toxic
Activity [21]: Non-toxic
Activity [22]: Toxic
Vd [23]: 22.4 L/kg
bioavailability [24]: 55%
Activity [25]: Non-toxic
half-life [26]: > 1.67 h
Activity [27]: Toxic
Activity [28]: Non-toxic
Cmax [29]: 1180 ng/mL
half-life [30]: > 1.67 h
Activity [31]: Non-toxic
Tmax [32]: 4.8 min
bioavailability [33]: 71.2%
half-life [34]: > 1 h
Activity [35]: Non-toxic
EC50 [36]: 6.5 µM
Cmax [37]: 593 ng/mL
half-life [38]: 9.18 h
AUC(0-inf) [39]: 4220 ng·h/mL
bioavailability [40]: 75%
half-life [41]: 8.86 h
Activity [42]: Toxic
half-life [43]: 16.6 h
half-life [44]: 28.4 h
Tmax [45]: 1.8 min
Activity [46]: Non-toxic
half-life [47]: > 1 h
Tmax [48]: 0.5 h
Activity [49]: Non-toxic
half-life [50]: 22.3 h
Activity [51]: Non-toxic
